This note sets out measurements from patent publication US20260201008A1, “SECRETIN-DERIVED GLP1R SELECTIVE AGONISTS” (GUBRA A/S, priority 2023, published 2026).

Numbered stars: 1 amine (or outer) side, 2 acyl side, 3 side chain; on linkers, the order of the positions; unused ones are H or OH. Square brackets hold non-standard residues; d marks the D form. Side chains are listed from the residue outwards. Peptide text beside a SMILES is read from it. * marks the point of attachment. C20 diacid = O=C(O)CCCCCCCCCCCCCCCCCCC(=O)*; γGlu = O=C(O)[C@H](CCC(=O)[*:2])N[*:1]; AEEA = NCCOCCOCC(=O)O; Aib = CC(C)(N)C(=O)O

Data set [1] can be described thus: Turbidity of crude library peptides (absorbance at 600 nm). Format: physicochemical. To be noted: Physical stability of peptides. In a few lines:
(§1)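 Fibril formation is scored as average ThT fluorescence from duplicate samples monitored for 72 h at 40° C with shaking stress. Turbidity is the absorbance at 600 nm taken before heating. Peptide concentration was 267 μM at pH 4.0 or pH 7.0.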

Data set [2] is described as follows: Fibril formation of crude library peptides (Thioflavin T). It counts as physicochemical. The arrangement: key: average ThT fluorescence emission at 480 nm (ex 450 nm), raw units. To be noted: Physical stability of peptides. In a few lines: as §1
In data set [3] the target is GLP1R (Homo sapiens, UniProt P43220). The experiment in a line: hGLP1R potency, cAMP accumulation in CHO-K1 cells stably overexpressing hGLP1R. It counts as cell-based. Details: host or cells: CHO-K1. The note with it: for Selectivity: SCTR EC50/GLP1R EC50 ratio; for EC50: cAMP accumulation, CHO-K1 cells overexpressing hGLP1R, read-out: pEC50 hGLPR1 (converted). In a few lines: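 TR-FRET cAMP read-out, one hour after reagent addition, following 30 min compound exposure at RT in DPBS/0.05% casein/0.5 mM IBMX. Crude peptides: 5 points, 10-fold steps, n=1. Purified peptides: 11 points, 3-fold steps, n=2. EC50 fitted with a variable-slope sigmoid.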
(In general: cAMP levels reflect the balance of adenylyl cyclase and phosphodiesterase activity.)

The target in data set [4] is SCTR (Homo sapiens, UniProt P47872). The experiment in a line: hSCTR potency, cAMP accumulation in CHO-K1 cells stably overexpressing hSCTR. It counts as cell-based. The arrangement: alternatively Euroscreen ES-712-AF; FAST-0161L; host or cells: CHO-K1. The note with it: cAMP accumulation, CHO-K1 cells overexpressing hSCTR; read-out: pEC50 hSCTR (converted). In a few lines: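 CHO-K1/hSCTR cells; DPBS + 0.05% casein + 0.5 mM IBMX; 30 min RT stimulation; cAMP by TR-FRET read at 1 h. Crude peptides: 5-point 10-fold dilutions, n=1. Purified: 11-point 3-fold dilutions, n=2. EC50 via variable-slope fit.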
SCTR, sequence (P47872 23-440): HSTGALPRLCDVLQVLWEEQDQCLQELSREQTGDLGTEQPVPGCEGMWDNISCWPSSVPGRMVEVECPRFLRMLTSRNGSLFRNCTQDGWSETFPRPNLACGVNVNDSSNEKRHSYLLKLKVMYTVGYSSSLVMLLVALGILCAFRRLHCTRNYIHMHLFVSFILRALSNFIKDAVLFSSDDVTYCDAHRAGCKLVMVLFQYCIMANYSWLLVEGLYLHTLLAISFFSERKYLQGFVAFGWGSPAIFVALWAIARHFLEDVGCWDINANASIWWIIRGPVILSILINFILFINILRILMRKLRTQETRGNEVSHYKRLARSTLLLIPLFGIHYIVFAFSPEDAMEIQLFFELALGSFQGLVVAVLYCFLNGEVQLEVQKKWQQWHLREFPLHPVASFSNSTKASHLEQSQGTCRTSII

GLP1R, sequence (P43220 24-463): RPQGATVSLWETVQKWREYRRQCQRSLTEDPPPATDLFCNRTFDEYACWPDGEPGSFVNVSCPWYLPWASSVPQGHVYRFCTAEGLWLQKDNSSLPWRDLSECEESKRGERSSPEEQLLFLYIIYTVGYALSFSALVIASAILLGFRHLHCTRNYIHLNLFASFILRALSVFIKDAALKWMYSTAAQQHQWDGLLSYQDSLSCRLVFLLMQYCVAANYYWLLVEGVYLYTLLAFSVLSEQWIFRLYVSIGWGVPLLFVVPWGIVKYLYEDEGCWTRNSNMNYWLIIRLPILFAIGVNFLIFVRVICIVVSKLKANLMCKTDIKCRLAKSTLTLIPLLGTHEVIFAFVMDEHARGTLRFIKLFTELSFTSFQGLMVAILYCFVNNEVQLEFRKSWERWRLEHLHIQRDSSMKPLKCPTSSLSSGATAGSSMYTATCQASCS

As to `CC(C)C[C@H](NC(=O)[C@H](Cc1ccccc1)NC(=O)[C@H](CCCNC(=N)N)NC(=O)[C@H](CCC(N)=O)NC(=O)[C@@H](NC(=O)[C@H](C)NC(=O)[C@H](C)NC(=O)[C@@H](NC(=O)[C@H](CCC(=O)O)NC(=O)[C@H](CCCCNC(=O)COCCOCCNC(=O)COCCOCCNC(=O)CC[C@H](NC(=O)CCCCCCCCCCCCCCCCCCC(=O)O)C(=O)O)NC(=O)[C@H](CC(C)C)NC(=O)[C@H](Cc1ccccc1)NC(=O)[C@H](CO)NC(=O)[C@@H](NC(=O)[C@H](CC(=O)O)NC(=O)[C@H](CO)NC(=O)[C@@H](NC(=O)[C@H](Cc1ccccc1)NC(=O)[C@@H](NC(=O)CNC(=O)[C@H](CCC(=O)O)NC(=O)C(C)(C)NC(=O)[C@@H](N)Cc1c[nH]cn1)[C@@H](C)O)[C@@H](C)O)C(C)C)[C@@H](C)O)[C@@H](C)O)C(=O)N[C@@H](CCC(=O)O)C(=O)N[C@@H](Cc1c[nH]cn1)C(=O)N[C@@H](CC(C)C)C(=O)N[C@H](C(N)=O)C(C)C` [compound 70] (H-H[Aib]EGTFTSDVSFLK([AEEA-AEEA-γGlu-C20 diacid])ETAATQRFLEHLV-NH2), the “Turbidity (pH 7)” value in data set [1] is 0.11. Moreover, the Fibril formation in data set [2] is 99118. For the same compound, in data set [3], the Selectivity is on record as 4095 and the EC50 is 0.02 nM. For the same compound, the EC50 in data set [4] is 100 nM.

On to `CC(C)C[C@H](NC(=O)[C@H](Cc1ccccc1)NC(=O)[C@H](CCCNC(=N)N)NC(=O)[C@H](CCC(N)=O)NC(=O)[C@H](CO)NC(=O)[C@H](C)NC(=O)[C@H](C)NC(=O)[C@@H](NC(=O)[C@H](CCC(=O)O)NC(=O)[C@H](CCCCNC(=O)COCCOCCNC(=O)COCCOCCNC(=O)CC[C@H](NC(=O)CCCCCCCCCCCCCCCCCCC(=O)O)C(=O)O)NC(=O)[C@H](CC(C)C)NC(=O)[C@H](CCCNC(=N)N)NC(=O)[C@H](CO)NC(=O)[C@@H](NC(=O)[C@H](CC(=O)O)NC(=O)[C@H](CO)NC(=O)[C@@H](NC(=O)[C@H](Cc1ccccc1)NC(=O)[C@@H](NC(=O)CNC(=O)[C@H](CCC(=O)O)NC(=O)C(C)(C)NC(=O)[C@@H](N)Cc1c[nH]cn1)[C@@H](C)O)[C@@H](C)O)C(C)C)[C@@H](C)O)C(=O)N[C@@H](CCC(=O)O)C(=O)N[C@@H](Cc1c[nH]cn1)C(=O)N[C@@H](CC(C)C)C(=O)N[C@H](C(N)=O)C(C)C` [compound 71] (H-H[Aib]EGTFTSDVSRLK([AEEA-AEEA-γGlu-C20 diacid])ETAASQRFLEHLV-NH2), for which the “Turbidity (pH 7)” value in data set [1] is recorded as 0.08. The compound also gave a Fibril formation in data set [2] of 231646. In data set [3], the Selectivity amounted to 13611 and the EC50 is 0.0631 nM. Also, in data set [4], the EC50 was 1000 nM.

Take `CC(C)C[C@H](NC(=O)[C@H](Cc1ccccc1)NC(=O)[C@H](CCCNC(=N)N)NC(=O)[C@H](CCC(N)=O)NC(=O)[C@H](CCC(=O)O)NC(=O)[C@H](C)NC(=O)[C@H](C)NC(=O)[C@H](Cc1ccccc1)NC(=O)[C@H](CCC(=O)O)NC(=O)[C@H](CCCCNC(=O)COCCOCCNC(=O)COCCOCCNC(=O)CC[C@H](NC(=O)CCCCCCCCCCCCCCCCCCC(=O)O)C(=O)O)NC(=O)[C@H](CC(C)C)NC(=O)[C@H](CCCNC(=N)N)NC(=O)[C@H](CO)NC(=O)[C@@H](NC(=O)[C@H](CC(=O)O)NC(=O)[C@H](CO)NC(=O)[C@@H](NC(=O)[C@H](Cc1ccccc1)NC(=O)[C@@H](NC(=O)CNC(=O)[C@H](CCC(=O)O)NC(=O)C(C)(C)NC(=O)[C@@H](N)Cc1c[nH]cn1)[C@@H](C)O)[C@@H](C)O)C(C)C)C(=O)N[C@@H](CCC(=O)O)C(=O)N[C@@H](Cc1c[nH]cn1)C(=O)N[C@@H](CC(C)C)C(=O)N[C@H](C(N)=O)C(C)C` [compound 72] (H-H[Aib]EGTFTSDVSRLK([AEEA-AEEA-γGlu-C20 diacid])EFAAEQRFLEHLV-NH2): in data set [1], the “Turbidity (pH 7)” value is 0.08. Further, the Fibril formation in data set [2] turned out to be 96622. Further, in data set [3], the Selectivity is recorded as 9251 and the EC50 was 0.1 nM. In addition, the EC50 in data set [4] is 1000 nM.

`CC(C)C[C@H](NC(=O)[C@H](Cc1ccccc1)NC(=O)[C@H](CCCNC(=N)N)NC(=O)[C@H](CCC(N)=O)NC(=O)[C@H](CCC(N)=O)NC(=O)[C@H](C)NC(=O)[C@H](C)NC(=O)[C@H](CCC(=O)O)NC(=O)[C@H](CCC(=O)O)NC(=O)[C@H](CCCCNC(=O)COCCOCCNC(=O)COCCOCCNC(=O)CC[C@H](NC(=O)CCCCCCCCCCCCCCCCCCC(=O)O)C(=O)O)NC(=O)[C@H](CC(C)C)NC(=O)[C@H](CCCNC(=N)N)NC(=O)[C@H](CO)NC(=O)[C@@H](NC(=O)[C@H](CC(=O)O)NC(=O)[C@H](CO)NC(=O)[C@@H](NC(=O)[C@H](Cc1ccccc1)NC(=O)[C@@H](NC(=O)CNC(=O)[C@H](CCC(=O)O)NC(=O)C(C)(C)NC(=O)[C@@H](N)Cc1c[nH]cn1)[C@@H](C)O)[C@@H](C)O)C(C)C)C(=O)N[C@@H](CCC(=O)O)C(=O)N[C@@H](Cc1c[nH]cn1)C(=O)N[C@@H](CC(C)C)C(=O)N[C@H](C(N)=O)C(C)C` [compound 73] (H-H[Aib]EGTFTSDVSRLK([AEEA-AEEA-γGlu-C20 diacid])EEAAQQRFLEHLV-NH2): the “Turbidity (pH 7)” value in data set [1] was determined as 0.09. The same compound yielded a Fibril formation in data set [2] of 14344. Further, in data set [3], the Selectivity turned out to be 10668 and the EC50 is 0.00631 nM. The EC50 in data set [4] was 79.4 nM.

For `CC(C)C[C@H](NC(=O)[C@H](Cc1ccccc1)NC(=O)[C@H](CCCNC(=N)N)NC(=O)[C@H](CCC(N)=O)NC(=O)[C@H](CO)NC(=O)[C@H](C)NC(=O)[C@H](C)NC(=O)C(C)(C)NC(=O)[C@H](CCC(=O)O)NC(=O)[C@H](CCCCNC(=O)COCCOCCNC(=O)COCCOCCNC(=O)CC[C@H](NC(=O)CCCCCCCCCCCCCCCCCCC(=O)O)C(=O)O)NC(=O)[C@H](CC(C)C)NC(=O)[C@H](Cc1ccccc1)NC(=O)[C@H](CO)NC(=O)[C@@H](NC(=O)[C@H](CC(=O)O)NC(=O)[C@H](CO)NC(=O)[C@@H](NC(=O)[C@H](Cc1ccccc1)NC(=O)[C@@H](NC(=O)CNC(=O)[C@H](CCC(=O)O)NC(=O)C(C)(C)NC(=O)[C@@H](N)Cc1c[nH]cn1)[C@@H](C)O)[C@@H](C)O)C(C)C)C(=O)N[C@@H](CCC(=O)O)C(=O)N[C@@H](Cc1c[nH]cn1)C(=O)N[C@@H](CC(C)C)C(=O)N[C@H](C(N)=O)C(C)C` [compound 74] (H-H[Aib]EGTFTSDVSFLK([AEEA-AEEA-γGlu-C20 diacid])E[Aib]AASQRFLEHLV-NH2), the “Turbidity (pH 7)” value in data set [1] is listed as 0.08. The compound further registered a Fibril formation in data set [2] of 12039. Moreover, in data set [3], the Selectivity amounted to 231739 and the EC50 was 0.0631 nM. Besides, in data set [4], the EC50 is 12600 nM.

In the case of `CC(C)C[C@H](NC(=O)[C@H](Cc1ccccc1)NC(=O)[C@H](CCCNC(=N)N)NC(=O)[C@H](CCC(N)=O)NC(=O)[C@H](CO)NC(=O)[C@H](C)NC(=O)[C@H](C)NC(=O)[C@H](CCC(=O)O)NC(=O)[C@H](CCC(=O)O)NC(=O)[C@H](CCCCNC(=O)COCCOCCNC(=O)COCCOCCNC(=O)CC[C@H](NC(=O)CCCCCCCCCCCCCCCCCCC(=O)O)C(=O)O)NC(=O)[C@H](CC(C)C)NC(=O)[C@H](Cc1ccc(O)cc1)NC(=O)[C@H](CO)NC(=O)[C@@H](NC(=O)[C@H](CC(=O)O)NC(=O)[C@H](CO)NC(=O)[C@@H](NC(=O)[C@H](Cc1ccccc1)NC(=O)[C@@H](NC(=O)CNC(=O)[C@H](CCC(=O)O)NC(=O)C(C)(C)NC(=O)[C@@H](N)Cc1c[nH]cn1)[C@@H](C)O)[C@@H](C)O)C(C)C)C(=O)N[C@@H](CCC(=O)O)C(=O)N[C@@H](Cc1c[nH]cn1)C(=O)N[C@@H](CC(C)C)C(=O)N[C@H](C(N)=O)C(C)C` [compound 75] (H-H[Aib]EGTFTSDVSYLK([AEEA-AEEA-γGlu-C20 diacid])EEAASQRFLEHLV-NH2), the “Turbidity (pH 7)” value in data set [1] was found to be 0.08. Further, the Fibril formation in data set [2] is reported as 9457. Further, in data set [3], the Selectivity is 133506 and the EC50 was 0.0251 nM. For the same compound, the EC50 in data set [4] is 3160 nM.

Regarding `CC(C)C[C@H](NC(=O)[C@H](Cc1ccccc1)NC(=O)[C@H](CCCNC(=N)N)NC(=O)[C@H](CCC(N)=O)NC(=O)[C@H](CCC(N)=O)NC(=O)[C@H](C)NC(=O)[C@H](C)NC(=O)[C@H](Cc1ccccc1)NC(=O)[C@H](CCC(=O)O)NC(=O)[C@H](CCCCNC(=O)COCCOCCNC(=O)COCCOCCNC(=O)CC[C@H](NC(=O)CCCCCCCCCCCCCCCCCCC(=O)O)C(=O)O)NC(=O)[C@H](CC(C)C)NC(=O)[C@H](Cc1ccc(O)cc1)NC(=O)[C@H](CO)NC(=O)[C@@H](NC(=O)[C@H](CC(=O)O)NC(=O)[C@H](CO)NC(=O)[C@@H](NC(=O)[C@H](Cc1ccccc1)NC(=O)[C@@H](NC(=O)CNC(=O)[C@H](CCC(=O)O)NC(=O)C(C)(C)NC(=O)[C@@H](N)Cc1c[nH]cn1)[C@@H](C)O)[C@@H](C)O)C(C)C)C(=O)N[C@@H](CCC(=O)O)C(=O)N[C@@H](Cc1c[nH]cn1)C(=O)N[C@@H](CC(C)C)C(=O)N[C@H](C(N)=O)C(C)C` [compound 76] (H-H[Aib]EGTFTSDVSYLK([AEEA-AEEA-γGlu-C20 diacid])EFAAQQRFLEHLV-NH2), the “Turbidity (pH 7)” value in data set [1] is on record as 0.08. This compound displayed a Fibril formation in data set [2] of 20479. Further, the Selectivity in data set [3] is on record as 122180. For the same compound, the EC50 was 0.0794 nM in data set [3] and 10000 nM in data set [4].
